How the values were obtained:
Assay in all cases: relative viability (nuclei count vs DMSO), 5 days (fraction); higher = more cells survive
[1] = compound: Cc1ccc2nc(NCCN)c3ncc(C)n3c2c1 + C[C@]1(O)C[C@@H](c2nc(-c3ccc4ccc(-c5ccccc5)nc4c3)c3c(N)nccn32)C1 [Linsitinib] (partner 1 µM)
Procedure, shortened: (§1)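 Lung cancer cell lines in 1536-well plates got either a single drug or a fixed anchor-drug dose together with five library-drug doses (not always all listed) in √10 steps, by pin tool, on the day after seeding. Nuclei were counted after 5 days, and relative viability is the treated-to-vehicle ratio of nuclei counts. Values are medians of duplicate plates.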

Salubrinal + Bortezomib = compound: O=C(/C=C/c1ccccc1)NC(NC(=S)Nc1cccc2cccnc12)C(Cl)(Cl)Cl [Salubrinal] + CC(C)C[C@H](NC(=O)[C@H](Cc1ccccc1)NC(=O)c1cnccn1)B(O)O [Bortezomib] (partner 0.002 µM)
Procedure, shortened: as §1

Salubrinal + Foretinib = compound: O=C(/C=C/c1ccccc1)NC(NC(=S)Nc1cccc2cccnc12)C(Cl)(Cl)Cl [Salubrinal] + COc1cc2c(Oc3ccc(NC(=O)C4(C(=O)Nc5ccc(F)cc5)CC4)cc3F)ccnc2cc1OCCCN1CCOCC1 [Foretinib] (partner 0.25 µM)
Procedure, shortened: as §1

Salubrinal + OSI-027 = compound: O=C(/C=C/c1ccccc1)NC(NC(=S)Nc1cccc2cccnc12)C(Cl)(Cl)Cl [Salubrinal] + COc1cccc2cc(-c3nc([C@H]4CC[C@H](C(=O)O)CC4)n4ncnc(N)c34)[nH]c12 [OSI-027] (partner 0.5 µM)
Procedure, shortened: as §1

Question: What does the source list for UMC-11?
Answer: relative viability ([1]; first compound 0.04 µM): 1.03; relative viability ([1]; first compound 0.1265 µM): 0.94; relative viability ([1]; first compound 0.4 µM): 1; relative viability ([1]; first compound 1.265 µM): 1.12; relative viability ([1]; first compound 4 µM): 0.956; relative viability (Salubrinal + Bortezomib; first compound 0.08 µM): 0.747; relative viability (Salubrinal + Bortezomib; first compound 0.253 µM): 0.462; relative viability (Salubrinal + Bortezomib; first compound 0.8 µM): 1.29; relative viability (Salubrinal + Bortezomib; first compound 2.53 µM): 0.904; relative viability (Salubrinal + Bortezomib; first compound 8 µM): 0.575; relative viability (Salubrinal + Foretinib; first compound 0.08 µM): 1.17; relative viability (Salubrinal + Foretinib; first compound 0.253 µM): 1; relative viability (Salubrinal + Foretinib; first compound 0.8 µM): 1.13; relative viability (Salubrinal + Foretinib; first compound 2.53 µM): 1.1; relative viability (Salubrinal + Foretinib; first compound 8 µM): 1.21; relative viability (Salubrinal + OSI-027; first compound 0.08 µM): 0.498; relative viability (Salubrinal + OSI-027; first compound 0.253 µM): 0.399; relative viability (Salubrinal + OSI-027; first compound 0.8 µM): 0.548; relative viability (Salubrinal + OSI-027; first compound 2.53 µM): 0.46; relative viability (Salubrinal + OSI-027; first compound 8 µM): 0.455

Source: the supplement of paper PMC10307832
